Data as given in patent US12281123B2, “Benzoxazinone compounds as KLK5/7 dual inhibitors” (MOLECULAR SKIN THERAPEUTICS, INC., priority 2019, dated 2025).
“And” between values parts separate entries of the source, which are not always exact repeats. Equal values may be shown once. Read-outs that look alike come from different tables or passages of the source.

Columns and labels:
Assay type in all cases: biochemical
[1] = biological target: T1, KLK14 (Homo sapiens, UniProt Q9P0G3); assay: Chromogenic assay, KLK14; details: S-2288 500 μM, highest conc. of 1.001 50 μM
T1 construct: purchased R&D Biosystems (Minneapolis, MN) / R&Dsystems; host or cells: mouse myeloma cells
T1 sequence (Q9P0G3 25-251): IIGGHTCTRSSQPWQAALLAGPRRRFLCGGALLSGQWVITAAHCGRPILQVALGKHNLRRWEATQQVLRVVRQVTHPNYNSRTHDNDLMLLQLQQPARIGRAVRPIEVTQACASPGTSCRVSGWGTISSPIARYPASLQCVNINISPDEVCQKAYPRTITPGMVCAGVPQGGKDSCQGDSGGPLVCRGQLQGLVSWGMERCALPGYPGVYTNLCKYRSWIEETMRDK
From the text: (§1) Human Kallikrein Proteins: Recombinant human KLK5 expressed in HEK293 was obtained from SpeedBio (Gaithersburg, MD). Recombinant proenzyme KLK-7 and recombinant proenzyme KLK-14 both expressed in mouse myeloma cells were from R&D Biosystems (Minneapolis, MN). Plasmin and thrombin were from Haematologic Technologies (Essex Junction, VT). Trypsin and Chymotrypsin were bought from Worthington Biochemical Corporation (Lakewood, NJ) and plasma kallikrein was from Prospec (East Brunswick, NJ). Neutrophil Elastase was obtained from Innovative Research (Peary Court, MI). Bovine recombinant enterokinase expressed in E. coli was bought from Sigma (St. Louis, MI). Matriptase expressed in E. coli was obtained from Enzo Life Sciences (Farmingdale, NY). The control inhibitors Nafamostat mesylate was from Sigma (St. Louis, MI) and (2-(2-fluorophenyl)-5,6,7,8-tetrahydro-4H-benzo[4,5]thieno[2,3-d][1,3]oxazin-4-one was from Interbioscreen (Moskow, Russia).
(§2) Substrates: S-2288 (D-Ile-Pro-Arg-pNA), CS-PSA (MeO-Suc-Arg-Pro-Tyr-pNA), S-2266 (H-D-Val-Leu-Arg-pNA) and S-2288 (H-D-Ile-Pro-Arg-pNA) were bought from Diapharma (West Chester, OH). MeOSuccAla-Ala-Pro-Val-pNA was purchased from Sigma (St Louis, MI). The substrates were dissolved in water at 10 mM and were frozen in aliquots at −20° C.
(§3) Activation of KLK-7 and KLK-14: 150 μL 8 μM solution of the proenzymes of KLK-7 or KLK-14 in 50 mM Tris, 10 mM CaCl2, 150 mM NaCl, 0.05% (w/v) Brij-35, pH 7.5 were mixed with 150 μL 10 μg/mL bovine enterokinase in the same buffer and incubated for 2 h for KLK-7 and 1 h for KLK-14 at 37° C. After the incubation period, activation was stopped by addition of 6 μL 0.5 M EDTA pH 8.0.
Assays: All assays were performed in 384 well polystyrene plates coated overnight with 0.1% Tween 20 at 4° C. The plates were then washed twice with 100 μL water and dried. […] The assays were monitored at 37° C. in a multi well plate reader at a wavelength of 405 nm (Molecular Devices, San Jose, CA) for 1 h. […]
Data analysis: The progress curves of substrate hydrolysis were analyzed by linear regression of the final 20 min of the reaction. […]

[2] = biological target: T2, Factor Xa (Homo sapiens, UniProt P00742); assay: Chromogenic assay, Factor Xa; details: Factor Xa 0.5 nM; S-2288 500 μM; highest conc. of 1.001 20 μM
T2 construct: purchased Haematologic Technologies
T2 sequence (P00742 235-488 limits assumed): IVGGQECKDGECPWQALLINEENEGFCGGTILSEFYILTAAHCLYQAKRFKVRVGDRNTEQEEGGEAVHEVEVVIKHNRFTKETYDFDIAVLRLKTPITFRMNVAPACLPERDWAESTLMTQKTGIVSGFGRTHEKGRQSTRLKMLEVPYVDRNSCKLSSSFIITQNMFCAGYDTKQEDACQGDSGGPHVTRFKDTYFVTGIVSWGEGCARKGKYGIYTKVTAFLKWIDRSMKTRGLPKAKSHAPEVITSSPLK
T2 sequence (P00742 41-179 partner limits assumed): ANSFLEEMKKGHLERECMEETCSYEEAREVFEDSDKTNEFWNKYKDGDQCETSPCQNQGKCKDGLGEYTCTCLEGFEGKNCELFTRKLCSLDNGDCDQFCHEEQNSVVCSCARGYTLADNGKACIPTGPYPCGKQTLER
Description: (§4) Assays: All assays were performed in 384 well polystyrene plates coated overnight with 0.1% Tween 20 at 4° C. The plates were then washed twice with 100 μL water and dried. For the determination of IC50 values, the inhibitors were diluted in serial dilutions of 1:3 intervals into pure DMSO at 50 fold of the intended final concentrations in the assays. Usually eight inhibitor dilutions and one DMSO control were prepared. The substrates were diluted into water at 2.2-fold the final concentration in the assay mixture. The wells of the plate were filled with 50 μL of the enzyme diluted in 2× assay buffer (100 mM Tris, 200 mM NaCl, 0.2% PEG, 0.01% Tween, 2 mM EDTA, pH 8.0) at twofold the intended concentration. Then 5 μL DMSO, 2.2 μL inhibitor and 45 μL substrate were added to start the reaction. The assays were monitored at 37° C. in a multi well plate reader at a wavelength of 405 nm (Molecular Devices, San Jose, CA) for 1 h. The tool inhibitor, nafamostat, was used as a control for trypsin, thrombin, KLK-5 and KLK-14 at 10 μM maximal concentration and (2-(2-fluorophenyl)-5,6,7,8-tetrahydro-4H-benzo[4,5]thieno[2,3-d][1,3]oxazin-4-one for KLK-7 at 5 μM.
Data analysis: The progress curves of substrate hydrolysis were analyzed by linear regression of the final 20 min of the reaction. Fit of the dose response of the resulting rates to the following equation yielded the IC50: […]

[3] = biological target: T3, KLK7 (Homo sapiens, UniProt P49862); assay: Recombinant KLK7 chromogenic IC50 assay
T3 construct: purchased R&D Biosystems (Minneapolis, MN) / R&Dsystems; host or cells: mouse myeloma cells
T3 sequence (P49862 30-253): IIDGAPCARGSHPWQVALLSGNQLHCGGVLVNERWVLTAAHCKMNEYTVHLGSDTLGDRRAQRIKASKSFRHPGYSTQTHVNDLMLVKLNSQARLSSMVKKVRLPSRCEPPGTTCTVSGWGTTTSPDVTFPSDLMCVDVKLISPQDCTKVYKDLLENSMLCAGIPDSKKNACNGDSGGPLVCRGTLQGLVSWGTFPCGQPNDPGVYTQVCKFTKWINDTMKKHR
From the text: as §1, §2, §3, §4
The table summarizes assay conditions for the individual enzymes:
Data analysis: The progress curves of substrate hydrolysis were analyzed by linear regression of the final 20 min of the reaction. Fit of the dose response of the resulting rates to the following equation yielded the IC50:
[formula] with 1) c: the background rate at the highest inhibitor concentration; 2) d: the rate of the control reaction; 3) IC50: the IC50 of the inhibitor; 4) x: the inhibitor concentration; and 5) b: the slope.
Proteases: KLK5 (SpeedBioSystems); KLK7 (R&Dsystems) was activated with enterokinase (2 hours, 37° C.) prior to assay; Trypsin (Sigma Aldrich); Chymotrypsin (Sigma Aldrich); Factor Xa (Haematologic Technologies); Plasmin (Haematologic Technologies); KLK14 (R&Dsystems) was activated with enterokinase (1 hour, 37° C.) prior to assay; Thrombin (Haematologic Technologies); Neutrophil Elastase (Athens Research&Technology); and KLK1 (Prospec).

[4] = system: proteases; assay: Chromogenic assay, protease panel (conclusion); details: conclusion from Table 3, all proteases tested
Description: as §4, with “μM. […]” for “μM.”

Compound: CS(=O)(=O)c1cc(CO)ccc1-c1nc2cc3c(cc2c(=O)o1)OCCO3 [Compound 1.001, 2-(4-(Hydroxymethyl)-2-(methylsulfonyl)phenyl)-7,8-dihydro-4H-[1,4]dioxino[2′,3′:4,5]benzo[1,2-d][1,3]oxazin-4-one]
- IC50 ([1]; KLK14 1 nM): 0.442 µM
- IC50 ([1]; KLK14 5 nM): 0.633 µM
- IC50 [2]: 3.22 µM and 10.4 µM and 3.94 µM
- IC50 ([3]; Table 2, assay protocol of Example 3, read-out: Recombinant KLK7 enzyme (IC50)): 0.34 µM
- IC50 ([3]; Table 3, KLK7 20 nM, CS-PSA 500 μM, highest conc. of 1.001 20 μM, read-out: IC50 (μM), KLK7): 0.647 µM and 0.693 µM
- Inhibition of KLK7, conclusion in words ([3]; conclusion from Table 3): inhibitor

Compound: CS(=O)(=O)c1cc(CO)ccc1C(=O)Nc1cc2c(cc1C(=O)O)OCCO2 [Compound 408, reference compound]
- Inhibition of proteases, conclusion in words [4]: unable to inhibit proteases
- IC50 (μM), KLK14 ([1]; KLK14 5 nM): No inhibition
- IC50 (μM), Factor Xa [2]: No inhibition
- IC50 (μM), KLK7 ([3]; Table 3, KLK7 20 nM, CS-PSA 500 μM, highest conc. of 1.001 20 μM): No inhibition
